Measurements published in the NIST ThermoML archive (doi:10.1021/je060271a).

Conditions: 283.14 K, Liquid, Vibrating tube method

CCCCCCC(=O)OCC(COC(=O)CCCCCC)(COC(=O)CCCCCC)COC(=O)CCCCCC [pentaerythritol tetraheptanoate]
Conditions	mass density [kg/m3]
11221 kPa	992.2
11244 kPa	992.2
11266 kPa	992.3
11294 kPa	992.2
11318 kPa	992.3
11342 kPa	992.2
11370 kPa	992.4
11394 kPa	992.3
11422 kPa	992.3
11446 kPa	992.3
11470 kPa	992.3
11499 kPa	992.4
11524 kPa	992.4
11548 kPa	992.4
11573 kPa	992.4
11602 kPa	992.4
11627 kPa	992.5
11657 kPa	992.5
11682 kPa	992.4
11707 kPa	992.5
11732 kPa	992.5
11762 kPa	992.5
11788 kPa	992.6
11813 kPa	992.5
11844 kPa	992.7
11870 kPa	992.6
11901 kPa	992.5
11928 kPa	992.7
11954 kPa	992.7
11981 kPa	992.5
12013 kPa	992.6
12040 kPa	992.6
12067 kPa	992.6
12099 kPa	992.8
12127 kPa	992.7
12161 kPa	992.8
12190 kPa	992.6
12219 kPa	992.7
12243 kPa	992.7
12264 kPa	992.8
12288 kPa	992.8
12308 kPa	992.8
12333 kPa	992.8
12353 kPa	992.7
12373 kPa	992.9
12398 kPa	992.9
12418 kPa	992.9
12439 kPa	993
12464 kPa	992.9
12485 kPa	993
12506 kPa	992.8
12527 kPa	992.9
12553 kPa	992.9
12574 kPa	993
12596 kPa	993
12622 kPa	992.9
12643 kPa	993.1
12665 kPa	993
12687 kPa	993
12713 kPa	993
12734 kPa	993
12760 kPa	993.1
12782 kPa	993.1
12805 kPa	993.1
12827 kPa	993
12854 kPa	993.1
12876 kPa	993.3
12899 kPa	993.1
12926 kPa	993.1
12948 kPa	993.1
12971 kPa	993.2
12999 kPa	993.2
13021 kPa	993.2
13045 kPa	993.2
13072 kPa	993.3
13096 kPa	993.2
13123 kPa	993.2
13146 kPa	993.3
13176 kPa	993.3
13201 kPa	993.2
13225 kPa	993.3
13243 kPa	993.4
13262 kPa	993.3
13278 kPa	993.3
13294 kPa	993.4
13313 kPa	993.3
13329 kPa	993.4
13348 kPa	993.4
13365 kPa	993.4
13383 kPa	993.3
13399 kPa	993.4
13418 kPa	993.5
13435 kPa	993.4
13451 kPa	993.5
13471 kPa	993.6
13488 kPa	993.4
13504 kPa	993.6
13524 kPa	993.4
13541 kPa	993.5
13558 kPa	993.5
13578 kPa	993.5
13595 kPa	993.5
13612 kPa	993.5
13632 kPa	993.5
13648 kPa	993.5
13666 kPa	993.5
13687 kPa	993.7
13704 kPa	993.7
13721 kPa	993.6
13738 kPa	993.6
13759 kPa	993.6
13776 kPa	993.6
